Calls of active or inactive are those of the source. The rule behind the calls is not given here.
Key:
HT-29 [1] = assay: Induction of cell cycle arrest in human HT-29 cells assessed as accumulation at sub-G1 phase at IC50 incubated for 48 hrs by RNaeA/propidium iodide based flow cytometry analysis (reference value: 0.12 %); assay type: functional
HT-29 [2] = assay: Induction of cell cycle arrest in human HT-29 cells assessed as accumulation at G2 phase at IC50 incubated for 48 hrs by RNaeA/propidium iodide based flow cytometry analysis (reference value: 13..16 %); assay type: functional
HCT-116 [3] = assay: Induction of cell cycle arrest in human HCT-116 cells assessed as accumulation at G2 phase at IC50 incubated for 48 hrs by RNaeA/propidium iodide based flow cytometry analysis (reference value: 17.76 %); assay type: functional
PC-3 [4] = assay: Induction of cell cycle arrest in human PC3 cells assessed as accumulation at G1 phase at IC50 incubated for 48 hrs by RNaeA/propidium iodide based flow cytometry analysis (reference value: 42.61 %); assay type: functional
DU-145 [5] = assay: Induction of cell cycle arrest in human DU-145 cells assessed as accumulation at sub-G1 phase at IC50 incubated for 48 hrs by RNaeA/propidium iodide based flow cytometry analysis (reference value: 0 %); assay type: functional
DU-145 [6] = assay: Induction of cell cycle arrest in human DU-145 cells assessed as accumulation at G1 phase at IC50 incubated for 48 hrs by […]/propidium iodide based flow cytometry analysis (reference value: 45.5 %); assay type: functional
DU-145 [7] = assay: Induction of cell cycle arrest in human DU-145 cells assessed as accumulation at S phase at IC50 incubated for 48 hrs by RNaeA/propidium iodide based flow cytometry analysis (reference value: 38.44 %); assay type: functional
DU-145 [8] = assay: Induction of cell cycle arrest in human DU-145 cells assessed as accumulation at G2 phase at IC50 incubated for 48 hrs by […]/propidium iodide based flow cytometry analysis (reference value: 16.06 %); assay type: functional
HT-29 [9] = assay: Induction of cell cycle arrest at G1 phase in human HT-29 cells assessed as reduction in CDK4 expression by Western blot analysis; assay type: functional, cell-based
HT-29 [10] = assay: Induction of cell cycle arrest at G1 phase in human HT-29 cells assessed as reduction in CDK6 expression by Western blot analysis; assay type: functional, cell-based
HT-29 [11] = assay: Induction of cell cycle arrest at G1 phase in human HT-29 cells assessed as reduction in Cyclin E2 expression by Western blot analysis; assay type: functional, cell-based
HCT-116 [12] = assay: Induction of cell cycle arrest in human HCT-116 cells assessed as reduction in CDK2 expression by Western blot analysis; assay type: functional, cell-based
HCT-116 [13] = assay: Induction of cell cycle arrest in human HCT-116 cells assessed as reduction in CDK6 expression by Western blot analysis; assay type: functional, cell-based
HCT-116 [14] = assay: Induction of cell cycle arrest in human HCT-116 cells assessed as increase in Cyclin E2 expression by Western blot analysis; assay type: functional, cell-based
HCT-116 [15] = assay: Induction of cell cycle arrest in human HCT-116 cells assessed as increase in p21 expression by Western blot analysis; assay type: functional, cell-based
HT-29 [16] = assay: Induction of cell cycle arrest in human HT-29 cells assessed as increase in p21 expression by Western blot analysis; assay type: functional, cell-based
PC-3 [17] = assay: Induction of cell cycle arrest in human PC-3 cells assessed as increase in p21 expression by Western blot analysis; assay type: functional, cell-based
PC-3 [18] = assay: Induction of cell cycle arrest in human PC-3 cells assessed as decrease in cyclin A2 expression by Western blot analysis; assay type: functional, cell-based
PC-3 [19] = assay: Induction of cell cycle arrest in human PC-3 cells assessed as decrease in cyclin B1 expression by Western blot analysis; assay type: functional, cell-based
PC-3 [20] = assay: Induction of cell cycle arrest in human PC-3 cells assessed as decrease in Cdc2 expression by Western blot analysis; assay type: functional, cell-based
DU-145 [21] = assay: Induction of cell cycle arrest in human DU-145 cells assessed as effect on cyclin A2 expression by Western blot analysis; assay type: functional, cell-based
DU-145 [22] = assay: Induction of cell cycle arrest in human DU-145 cells assessed as effect on cyclin B1 expression by Western blot analysis; assay type: functional, cell-based
HT-29 [23] = assay: Induction of apoptosis in human HT-29 cells assessed as late apoptotic cells incubated for 48 hrs by annexin-V/FITC and propidium iodide staining based flow cytometry analysis (reference value: 9.52%); assay type: functional
HCT-116 [24] = assay: Induction of apoptosis in human HCT-116 cells assessed as viable cells incubated for 48 hrs by annexin-V/FITC and propidium iodide staining based flow cytometry analysis (reference value: […] %); assay type: functional
HCT-116 [25] = assay: Induction of apoptosis in human HCT-116 cells assessed as necrotic cells incubated for 48 hrs by annexin-V/FITC and propidium iodide staining based flow cytometry analysis (reference value: 7.22 %); assay type: functional
PC-3 [26] = assay: Induction of apoptosis in human PC-3 cells assessed as early apoptotic cells incubated for 48 hrs by annexin-V/FITC and propidium iodide staining based flow cytometry analysis (reference value: 4.38 %); assay type: functional
PC-3 [27] = assay: Induction of apoptosis in human PC-3 cells assessed as necrotic cells incubated for 48 hrs by annexin-V/FITC and propidium iodide staining based flow cytometry analysis (reference value: 0.54 %); assay type: functional
DU-145 [28] = assay: Induction of apoptosis in human DU-145 cells assessed as viable cells incubated for 48 hrs by annexin-V/FITC and propidium iodide staining based flow cytometry analysis (reference value: 94.13 %); assay type: functional
DU-145 [29] = assay: Induction of apoptosis in human DU-145 cells assessed as necrotic cells incubated for 48 hrs by annexin-V/FITC and propidium iodide staining based flow cytometry analysis (reference value: 0.04 %); assay type: functional
PC-3 [30] = assay: Induction of apoptosis in human PC-3 cells assessed as decrease in pro-caspase-3 expression by Western blot assay; assay type: functional, cell-based
HT-29 [31] = assay: Induction of apoptosis in human HT-29 cells assessed as increase in caspase-3 level by Western blot assay; assay type: functional, cell-based
PC-3 [32] = assay: Induction of apoptosis in human PC-3 cells assessed as increase in caspase-3 level by Western blot assay; assay type: functional, cell-based
HT-29 [33] = assay: Induction of apoptosis in human HT-29 cells assessed as increase in cleaved PARP protein expression by Western blot assay; assay type: functional, cell-based
DU-145 [34] = assay: Induction of apoptosis in human DU-145 cells assessed as increase in cleaved PARP protein expression by Western blot assay; assay type: functional, cell-based
HCT-116 [35] = assay: Induction of apoptosis in human HCT-116 cells assessed as decrease in PARP protein expression by Western blot assay; assay type: functional, cell-based
DU-145 [36] = assay: Induction of apoptosis in human DU-145 cells assessed as decrease in PARP protein expression by Western blot assay; assay type: functional, cell-based

`COc1cc(C(=O)/C=C/c2ccc(OCCCNCCCNCCCCN)cc2)cc(OC)c1OC` showed an Activity (HT-29 [1]) of 7.07%, an Activity (HT-29 [2]) of 13.32% and an Activity (HCT-116 [3]) of 19.93%. The Activity (PC-3 [4]) was 19.12%, the Activity (DU-145 [5]) was 9.28% and the Activity (DU-145 [6]) was 28.11%. For the same molecule, the Activity (DU-145 [7]) was 37.34%, the Activity (DU-145 [8]) was 34.55% and the Activity (HT-29 [9]) was “Active”. The Activity (HT-29 [10]) was “Active”, the Activity (HT-29 [11]) was “Active” and the Activity (HCT-116 [12]) was “Active”. For the same molecule, the Activity (HCT-116 [13]) was “Active”, the Activity (HCT-116 [14]) was “Active” and the Activity (HCT-116 [15]) was “Active”. For the same molecule, the Activity (HT-29 [16]) was “Active”, the Activity (PC-3 [17]) was “Active” and the Activity (PC-3 [18]) was “Active”. The Activity (PC-3 [19]) was “Active”, the Activity (PC-3 [20]) was “Active” and the Activity (DU-145 [21]) was “inactive”. For the same molecule, the Activity (DU-145 [22]) was “inactive”, the Activity (HT-29 [23]) was 31.39% and the Activity (HCT-116 [24]) was 52.13%. The Activity (HCT-116 [25]) was 3.35%, the Activity (PC-3 [26]) was 34.25% and the Activity (PC-3 [27]) was 2.63%. The Activity (DU-145 [28]) was 38.96%, the Activity (DU-145 [29]) was 0.05% and the Activity (PC-3 [30]) was “Active”. For the same molecule, the Activity (HT-29 [31]) was “Active”, the Activity (PC-3 [32]) was “Active” and the Activity (HT-29 [33]) was “Active”. For the same molecule, the Activity (DU-145 [34]) was “Active”, the Activity (HCT-116 [35]) was “Active” and the Activity (DU-145 [36]) was “Active”.

Source: ChEMBL document CHEMBL4825690, “Synthesis and biological evaluation of chalcone-polyamine conjugates as novel vectorized agents in colorectal and prostate cancer chemotherapy” (Eur J Med Chem, 2021)
